Experimental data taken from US12564644B2, “Cyclodextrin complexes of specialized proresolving mediators” (THETIS PHARMACEUTICALS LLC, priority 2022, dated 2026).

Columns and labels:
[1] = Chemical stability in solution (deionized water) by HPLC, 16 weeks accelerated conditions (Example 10); format: physicochemical; conditions: for RvE1 Area % Baseline: 2 mg/ml of RvE1, 40° C., 75% relative humidity, exposed to air; for % Change at Week 16 vs Baseline / RvE1 Area % Week 8 / RvE1 Area % Week 16: 2 mg/ml of RvE1, accelerated conditions
Procedure: The stability of […] alone (“RvE1 Control”) and complexed with cyclodextrins (“RvE1 CD Complexes”) was evaluated. Samples of the test articles were placed in open test tubes and maintained at 40° C. and 75% relative humidity, exposed to air, for 16 weeks. […] Briefly, HPLC analysis was performed on a Halo Guard column (Halo C18 4.6×150 mm, 2.7 μm), mounted on an Agilent HPLC system equipped with a UV detector (272 nm detection). The mobile phase consisted of a gradient between solution A, water, and solution B, methanol, both containing 100 mM of ammonium formate at pH 4.0. The gradient program was 95-0% with respect to solution A and 5-100% with respect to solution B. The flow rate was 0.9 mL/min over 50 minutes. Lack of stability was indicated by a reduction in the area percent purity (area %) of the single major peak of RvE1 (retention time of 31.3 minutes) and the appearance of new HPLC peaks or an increase in the area % of pre-existing impurities. All HPLC measurements of RvE1 purity and degradant levels were calculated based on area percent relative to the detectable components of the molecule including isomers and epimers of RvE1, impurities and degradants induced by the test conditions. The chemical stability of […] or Na-RvE1 alone and complexed with cyclodextrins in solution was evaluated. Samples of the test articles dissolved in deionized water at a concentration of 2 mg/ml of RvE1 were placed in open test tubes and maintained at 40° C. and 75% relative humidity, exposed to air, over a period of 16 weeks.

[2] = Long-term solid-state chemical stability by HPLC, 24 weeks accelerated conditions (Example 9); format: physicochemical; conditions: for RvE1 Area % (error +/− 1%) Baseline: 40° C., 75% relative humidity, exposed to air; for % Change at Week 24 vs Baseline (degradation rate) / RvE1 Area % (error +/− 1%) Week 8 / RvE1 Area % (error +/− 1%) Week 16 / RvE1 Area % (error +/− 1%) Week 24: accelerated conditions
Procedure: The stability of RvE1-MgLys alone (“RvE1 Control”) and complexed with cyclodextrins (“RvE1 CD Complexes”) was evaluated. Samples of the test articles were placed in open test tubes and maintained at 40° C. and 75% relative humidity, exposed to air, for 16 weeks. […] Briefly, HPLC analysis was performed on a Halo Guard column (Halo C18 4.6×150 mm, 2.7 μm), mounted on an Agilent HPLC system equipped with a UV detector (272 nm detection). The mobile phase consisted of a gradient between solution A, water, and solution B, methanol, both containing 100 mM of ammonium formate at pH 4.0. The gradient program was 95-0% with respect to solution A and 5-100% with respect to solution B. The flow rate was 0.9 mL/min over 50 minutes. Lack of stability was indicated by a reduction in the area percent purity (area %) of the single major peak of RvE1 (retention time of 31.3 minutes) and the appearance of new HPLC peaks or an increase in the area % of pre-existing impurities. All HPLC measurements of RvE1 purity and degradant levels were calculated based on area percent relative to the detectable components of the molecule including isomers and epimers of RvE1, impurities and degradants induced by the test conditions.
A study of the chemical stability of both RvE1-Mg-Lys alone and sodium RvE1 (“Na-RvE1”) alone and complexed with cyclodextrins was evaluated over 24 weeks. Samples of the test articles as solids were placed in open test tubes and maintained at 40° C. and 75% relative humidity, exposed to air.

[3] = Oral pharmacokinetics, RvE1 in blood plasma after single oral gavage (Example 12); format: in vivo; conditions: mice
Procedure: To establish the comparative oral pharmacokinetics (“PK”) of RvE1 MgLys alone (“RvE1 Control”) and RvE1 MgLys complexed with gamma-cyclodextrin (“RvE1 Complex”), a study was conducted to investigate RvE1 exposure in blood plasma following a single dose of RvE1 Control or RvE1 Complex administered via oral gavage at various timepoints up to 8 hours of 4 mg/kg of RvE1. Quantitative measurement of RvE1 in blood plasma was determined by HPLC-MS/MS performed on a Halo Guard column (Halo C18 4.6×150 mm, 2.7 μm), mounted on an Agilent HPLC system equipped with a UV detector (272 nm detection).
Sixty five (65) male C57B16 mice were randomized into 3 experimental groups at 8 weeks of age: baseline control (“Baseline”, n=5), RvE1 Control (n=30) and the RvE1 Complex (n=30). Prior to administration of test article, the mice in the Baseline group were sacrificed and blood was drawn to establish the endogenous levels of RvE1 in plasma. The 60 remaining mice received a single dose of RvE1 Control or RvE1 Complex. Five (5) mice in each group were sacrificed at each of the following timepoints to enable the determination of an RvE1 concentration-versus-time curve: 15 minutes, 30 minutes, 1, 2—, 4- and 8-hours post-dose. At the time of sacrifice blood was drawn into EDTA-treated tubes and immediately frozen.

[4] = Solid-state chemical stability by HPLC, 16 weeks accelerated conditions (Example 8); format: physicochemical; conditions: 40° C., 75% relative humidity, exposed to air
[5] = Solid-state physical stability, visual, ambient conditions 168 hours (Example 11); format: physicochemical; conditions: open test tubes, 18-22° C., relative humidity 52% to 72%
Procedure: The solid-state physical stability of […] alone (“RvE1 Control”) […]-cyclodextrin complex (“RvE1 Complex”) was evaluated (FIG. 24A-D). Samples of the test articles as solids were placed in open test tubes under ambient conditions over a period of 168 hours, at temperature between 18-22° C. and relative humidity between 52% and 72%. The solid-state physical stability was assessed visually based on whether the substance retained its form as a solid powder or transitioned to a liquid form.

[6] = Solid-state chemical stability by HPLC, 16 weeks accelerated conditions (Example 8); format: physicochemical
Procedure: The stability of […] alone (“RvE1 Control”) and complexed with cyclodextrins (“RvE1 CD Complexes”) was evaluated. Samples of the test articles were placed in open test tubes and maintained at 40° C. and 75% relative humidity, exposed to air, for 16 weeks. […] Briefly, HPLC analysis was performed on a Halo Guard column (Halo C18 4.6×150 mm, 2.7 μm), mounted on an Agilent HPLC system equipped with a UV detector (272 nm detection). The mobile phase consisted of a gradient between solution A, water, and solution B, methanol, both containing 100 mM of ammonium formate at pH 4.0. The gradient program was 95-0% with respect to solution A and 5-100% with respect to solution B. The flow rate was 0.9 mL/min over 50 minutes. Lack of stability was indicated by a reduction in the area percent purity (area %) of the single major peak of RvE1 (retention time of 31.3 minutes) and the appearance of new HPLC peaks or an increase in the area % of pre-existing impurities. All HPLC measurements of RvE1 purity and degradant levels were calculated based on area percent relative to the detectable components of the molecule including isomers and epimers of RvE1, impurities and degradants induced by the test conditions.

[7] = accelerated conditions, baseline
[8] = accelerated conditions, week 16

Structure (SMILES): CC[C@@H](O)/C=C/C=C/C[C@@H](O)/C=C/C=C/C=C/[C@@H](O)CCCC(=O)[O-].[Na+] [Na-RvE1, sodium RvE1]
- RvE1 Area % Baseline [1]: 96.2%
- % Change at Week 16 vs Baseline [1]: 80.7%
- RvE1 Area % Week 8 [1]: 36.0%
- RvE1 Area % Week 16 ([1]; week 16): 18.6%
- RvE1 Area % Week 16 ([1]; week 16, listed as Na-RvE1 Control): 18.6%
- RvE1 Area % (error +/− 1%) Baseline [2]: 96.2%
- RvE1 Area % (error +/− 1%) Baseline ([2]; listed as Na-RvE1 control): 96.2%
- % Change at Week 24 vs Baseline (degradation rate) [2]: 100.0%
- % Change at Week 24 vs Baseline (degradation rate) ([2]; listed as Na-RvE1 control): 100%
- RvE1 Area % (error +/− 1%) Week 8 [2]: 78.0%
- RvE1 Area % (error +/− 1%) Week 16 [2]: 49.8%
- RvE1 Area % (error +/− 1%) Week 24 ([2]; week 24): 0.0%
- RvE1 Area % (error +/− 1%) Week 24 ([2]; week 24, listed as Na-RvE1 Control): 0%

Structure (SMILES): CC[C@@H](O)/C=C/C=C\C[C@@H](O)/C=C/C=C/C=C\[C@@H](O)CCCC(=O)O.CC[C@@H](O)/C=C/C=C\C[C@@H](O)/C=C/C=C/C=C\[C@@H](O)CCCC(=O)O.NCCCC[C@H](N)C(=O)[O-].NCCCC[C@H](N)C(=O)[O-].[Mg+2] [RvE1 Control, RvE1 magnesium dilysinate]
- AUC (0 to 8 hrs) ([3]; 4 mg/kg of RvE1): 15.2 ng·h/mL
- Cmax ([3]; 4 mg/kg of RvE1): 45.5 ng/mL
- Tmax ([3]; 4 mg/kg of RvE1): 15 min
- RvE1 plasma concentration 15 min ([3]; 4 mg/kg of RvE1, 15 min): 45.5 ng/mL
- RvE1 plasma concentration 30 min ([3]; 4 mg/kg of RvE1, 30 min): 6.3 ng/mL
- RvE1 plasma concentration 1 hr ([3]; 4 mg/kg of RvE1, 1 hr): 1.2 ng/mL
- RvE1 plasma concentration 2 hr ([3]; 4 mg/kg of RvE1, 2 hr): 0.2 ng/mL
- RvE1 plasma concentration 4 hr ([3]; 4 mg/kg of RvE1, 4 hr): 0.3 ng/mL
- RvE1 plasma concentration 8 hr ([3]; 4 mg/kg of RvE1, 8 hr): 0.1 ng/mL
- RvE1 Area % Baseline [1]: 94.8%
- % Change at Week 16 vs Baseline [1]: 45.7%
- RvE1 Area % Week 8 [1]: 84.3%
- RvE1 Area % Week 16 ([1]; week 16, listed as RvE1-MgLys Control): 51.5%
- RvE1 Area % Week 16 ([1]; week 16, listed as RvE1 Mg-Lys): 51.5%
- RvE1 Area % Week 16 ([4]; week 16, listed as RvE1-MgLys): 80.7%
- RvE1 Area % Baseline ([4]; open test tubes, baseline, listed as RvE1-MgLys): 94.0%
- physical form, visual ([5]; 24 and 168 hours): gel-like substance
- physical form, visual ([5]; 8 hours): began to agglomerate and turn a darker color
- physical form, visual ([5]; 8 hours, listed as RvE1-Control): remained in powder form
- physical form, visual ([5]; baseline): powder form
- % Change at Week 16 vs Baseline (degradation rate) ([6]; 40° C., 75% relative humidity, exposed to air): 14.1%
- RvE1 Area % Week 8 ([6]; 40° C., 75% relative humidity, exposed to air, week 8): 86.7%
- RvE1 Area % Week 16 ([6]; 40° C., 75% relative humidity, exposed to air, week 16): 80.7%
- # of Deg. Peaks ≥0.20% Baseline [6, 7]: 6
- # of Deg. Peaks ≥1.00% Baseline [6, 7]: 2
- # of Deg. Peaks ≥0.20% Week 8 ([6]; accelerated conditions, week 8): 19
- # of Deg. Peaks ≥1.00% Week 8 ([6]; accelerated conditions, week 8): 4
- # of Deg. Peaks ≥0.20% Week 16 [6, 8]: 19
- # of Deg. Peaks ≥1.00% Week 16 [6, 8]: 8
- RvE1 Area % Baseline ([6]; open test tubes, 40° C., 75% relative humidity, exposed to air, baseline): 94%
- RvE1 Area % (error +/− 1%) Baseline ([2]; listed as RvE1 Mg-Lys): 94.8%
- RvE1 Area % (error +/− 1%) Baseline ([2]; listed as RvE1 MgLys control): 94.8%
- % Change at Week 24 vs Baseline (degradation rate) ([2]; listed as RvE1-MgLys control): 16.6%
- % Change at Week 24 vs Baseline (degradation rate) ([2]; listed as RvE1 Mg-Lys): 16.6%
- RvE1 Area % (error +/− 1%) Week 8 [2]: 88.4%
- RvE1 Area % (error +/− 1%) Week 16 [2]: 82.3%
- RvE1 Area % (error +/− 1%) Week 24 ([2]; week 24, listed as RvE1-MgLys Control): 79.1%
- RvE1 Area % (error +/− 1%) Week 24 ([2]; week 24, listed as RvE1 Mg-Lys): 79.1%
